Results as given in PMC7705112, “A Novel, Broad-Acting Peptide Inhibitor of Double-Stranded DNA Virus Gene Expression and Replication” (Frontiers in Microbiology, 2020).
Entries after “also recorded” stand apart in the source; their conditions may differ. Where two headings read alike, the source gives them in different places. Peptide text beside a SMILES is read from it.

Tests used:
[1] = system: HSV-1 F, HSV-1 703, HSV-1 601; assay type: cell-based, herpes simplex virus; conditions: for EC50: Figure 8A, triplicate wells
Varicella zoster virus = assay: VZV cytopathic effect; conditions: human fibroblasts, pre-treated, infected 1 h, three days, microscopy
HEK293 cells [2] = assay: Cell viability, CellTiter-Glo 2.0; assay type: cell-based; conditions: 96 h incubation; Figure 2B, triplicate wells
Protocol: (§1) Vero, MRC-5, and CV-1 cells were cultured in Dulbecco’s Modified Eagle Medium (DMEM; ThermoFisher, Waltham, MA, United States) and Jurkat cells were cultured in RPMI 1640 medium containing 10% fetal calf serum, 100 U/ml penicillin, and 0.1 mg/ml streptomycin (ThermoFisher). HEK293 and NIH/3T3 cells were adapted to growth in CO2-independent medium supplemented with 10% fetal calf serum, 2 mM glutamine, and 1% antibiotic-antimycotic (ThermoFisher) and cultivated in a humidified atmosphere at 37°C. […] Viability was analyzed using CellTiter-Glo® 2.0 Assay according to the manufacturer’s protocol (Promega). […] Cytotoxicity was analyzed using MultiTox-Glo Multiplex Cytotoxicity Assay according to the manufacturer’s protocol (Promega).

Baculovirus-Luc = conditions: for EC50: read-out: EC50, inhibition of reporter gene expression
VZV transcripts = VZV transcripts by real-time PCR; assay type: cell-based, varicella zoster virus; conditions: lysates of infected cells, normalized to GAPDH mRNA; Figure S8; read-out: EC50, reduction of VZV transcripts
Protocol: VZV transcripts were analysed from lysates of infected cells by real-time PCR using ViroReal® VZV (RTGM20V; Ingenetix GmbH, Austria) and normalized to GAPDH mRNA.

adenovirus type 5 = assay type: cell-based
Protocol: Luciferase from cell lysates was recorded 24 hours after infection. Results shown are luciferase levels expressed as % of control from duplicate wells. Luciferase was detected using Luciferase Assay System as described in Materials & Methods of the main article.

adenovirus 5 = assay type: cell-based
NIH/3T3 cells = assay: Cytotoxicity, MultiTox-Glo Multiplex; assay type: cell-based; conditions: 72 h; Figure 4B, triplicates
Protocol: as §1

GAPDH mRNA, MRC-5 cells = assay: GAPDH mRNA in cells of the HCMV replicon assay; conditions: at the highest concentration of 20 μM; no effect below
HEK293 cells [3] = assay: Morphology of HEK293 cells; assay type: cell-based
[4] = system: RSV RNA (nucleocapsid protein gene); assay: RSV RNA by real-time PCR; assay type: cell-based, Respiratory syncytial virus
Protocol: Lysates from infected cells were examined for the presence of RSV RNA by real-time PCR using ViroReal® RSV (RTGM20V; Ingenetix GmbH, Austria) detecting the nucleocapsid protein gene of RSV and normalized to GAPDH mRNA. Calculated EC50 was 0.8 µM for TAT-I24 with 80% inhibition at the highest concentration (20 µM). Ribavirin was included as control.

[5] = system: vaccinia virus wild-type (strain Western Reserve); conditions: Figure 9B
HCMV TB40 = assay: Replicon assay (AAV-GLuc-3B), MRC-5 cells, HCMV; assay type: cell-based, human cytomegalovirus; conditions: MRC-5, 3 days; Figure 7A, TAT (48–60)
murine CMV (MCMV) = assay type: cell-based, murine cytomegalovirus; conditions: NIH/3T3, MOI 0.5, 72 h; Figures 4A, S4A
Protocol: NIH/3T3 cells were seeded at a density of 2 × 10^4 cells/well of a 96-well plate and allowed to attach overnight. On the next day, medium was removed and replaced by medium containing peptide dilutions. Then, murine CMV (MCMV) expressing firefly luciferase ([Trilling et al., 2011]) was added to the cells at a MOI of 0.5 with aid of centrifugal enhancement at 800 × g for a total of 30 min.
Virus adsorption was performed by addition of MCMV expressing luciferase at a MOI of 0.5 with centrifugal enhancement at +4°C and further incubation at +4°C for 60 min before removal of unabsorbed virus and three times washing of cells with cold medium. […] After 72 h incubation at 37°C, luciferase levels were determined from cell lysates as described above.
In another setting, NIH/3T3 cells were preincubated with TAT-I24 at concentrations of 1 and 10 μM for 1, 3, and 6 h followed by removal of peptide and 3x washing with medium. […] After 72 h, luciferase levels were determined from cell lysates as described above.
A, NIH/3T3 cells were seeded at a density of 2 x 10^4 cells/well of a 96-well plate and treated on the next day with increasing concentrations of I24 or TAT-I24 and infected with MCMV (MOI = 0.5). After 72 hrs, luciferase was determined from cell lysates. Results shown are luciferase levels expressed as % of control from duplicate wells. […] Plaque formation was determined after 5 days. […]

RSV (strain A2) = assay: RSV cytopathic effect; assay type: cell-based, Respiratory syncytial virus A; conditions: human Hep2 cells, pre-treated, infected 2 hrs at 37°C, 3 days, microscopy
Protocol: Respiratory syncytial virus (RSV): Human Hep2 cells were pre-treated with peptides and infected with cell-free RSV Stock (strain A2) for 2 hrs at 37°C. Medium was then removed and unabsorbed virus removed by washing. Medium containing peptide dilutions was then added to cells.

MCMV S-mCherry-SCP = MCMV S-mCherry-SCP replication, microscopy; assay type: cell-based, murine cytomegalovirus; conditions: NIH/3T3, various concentrations, 72 h; Figure 4C
Protocol: For analysis of MCMV replication, NIH/3T3 cells were seeded at a density of 2 × 10^4 cells/well of ibiTreat eight-well chambers (ibidi, Germany). On the next day, cells were treated with peptides and infected with murine CMV S-mCherry-SCP ([Bosse et al., 2012]) at a MOI 0.2 for 72 h before fixation with 5% formaldehyde and staining of nuclei with DAPI. Microscopic examination was performed using a Live Cell Video Microscope (Leica Microsystems).

HSV-1 UL30 gene = assay: HSV-1 UL30 transcripts by real-time PCR; conditions: cells from the replicon assay; Figures 8B, S6C
influenza A PR8 = assay: Influenza A plaque-formation assay; conditions: MDCK cells, three days, at the concentrations used
adenovirus 19a/64 = assay: Replicon assay (AAV-GLuc-3B), A549 cells, adenovirus 19a/64; assay type: cell-based; conditions: A549, MOI 1.0, at the concentrations used; Figures 3D, S3A
adenovirus 4 = assay: Replicon assay (AAV-GLuc-3B), A549 cells, adenovirus 4; assay type: cell-based; conditions: A549, MOI 1.0, at the concentrations used; Figures 3D, S3A
TZM-bl reporter cells = assay: Reporter gene expression in non-infected TZM-bl cells; conditions: 48 hours after treatment; Figure S7
[6] = system: firefly luciferase reporter gene under control of the CMV promoter, HEK293 cells; assay: Luciferase expression from transfected CMV promoter plasmid (Superfect); assay type: cell-based; conditions: HEK293, Figure 1D, TAT (47–57) alone
Protocol: Briefly, for one well of a 48-well plate, 100 ng DNA and 1 μl Superfect reagent were mixed by pipetting followed by addition of 12.5 μl of serum‐ and antibiotic-free medium. After brief vortexing and further incubation at room temperature for 15 min, 112.5 μl medium containing 10% fetal calf serum and antibiotics were added. For transfection in the presence of peptides, a transfection mixture of DNA, Superfect reagent, and serum-and antibiotic-free medium were prepared for the required number of wells. From this mixture, 25 μl aliquots were made and 0.5 μl peptides (10 mM each) added to each aliquot, vortexed briefly, and incubated for 15 min at room temperature. Then, 225 μl of medium containing 10% fetal calf serum was added and 125 μl applied per well of duplicate wells. For other types of multi-well plates, volumes were adapted according to the growth area of the wells.

## Nc1nc2c(ncn2COCCO)c(=O)[nH]1 [ACV, aciclovir]
[1]; HSV-1 isolate 703, Figure S6A
  sensitivity of isolate to aciclovir: resistance
Varicella zoster virus
  CPE: 4 µM

## CC(C)C[C@H](NC(=O)[C@@H](N)CS)C(=O)N[C@@H](C)C(=O)N[C@@H](Cc1ccccc1)C(=O)N[C@@H](Cc1ccc(O)cc1)C(=O)N[C@@H](C)C(=O)N[C@@H](CS)C(=O)N[C@@H](Cc1ccccc1)C(=O)N[C@@H](CS)C(=O)O [I24] (H-CLAFYACFC-OH)
HEK293 cells [2]
  effects on HEK293 cell viability: no effects

## CC(C)C[C@H](NC(=O)[C@H](CS)NC(=O)[C@H](Cc1ccc(O)cc1)NC(=O)[C@@H]1CCCN1C(=O)[C@H](CC(=O)O)NC(=O)[C@H](CCC(=O)O)NC(=O)[C@@H](NC(=O)[C@H](CCCCN)NC(=O)[C@H](CCCNC(=N)N)NC(=O)[C@H](CCCCN)NC(=O)[C@H](CCCCN)NC(=O)[C@H](CCCCN)NC(=O)[C@@H]1CCCN1)C(C)C)C(=O)N[C@@H](C)C(=O)N[C@@H](Cc1ccccc1)C(=O)N[C@@H](Cc1ccc(O)cc1)C(=O)N[C@@H](C)C(=O)N[C@@H](CS)C(=O)N[C@@H](Cc1ccccc1)C(=O)N[C@@H](CS)C(=O)O [SV40 NLS-I24] (H-PKKKRKVEDPYCLAFYACFC-OH)
Baculovirus-Luc; HEK293, Figure 2E, triplicate wells
  EC50: 1000 nM

## CC(C)C[C@H](NC(=O)[C@H](CS)NC(=O)[C@H](CCC(N)=O)NC(=O)[C@@H]1CCCN1C(=O)[C@@H]1CCCN1C(=O)[C@H](CCCNC(=N)N)NC(=O)[C@H](CCCNC(=N)N)NC(=O)[C@H](CCCNC(=N)N)NC(=O)[C@H](CCC(N)=O)NC(=O)[C@H](CCCNC(=N)N)NC(=O)[C@H](CCCNC(=N)N)NC(=O)[C@H](CCCCN)NC(=O)[C@H](CCCCN)NC(=O)[C@H](CCCNC(=N)N)NC(=O)CN)C(=O)N[C@@H](C)C(=O)N[C@@H](Cc1ccccc1)C(=O)N[C@@H](Cc1ccc(O)cc1)C(=O)N[C@@H](C)C(=O)N[C@@H](CS)C(=O)N[C@@H](Cc1ccccc1)C(=O)N[C@@H](CS)C(=O)O [TAT-I24] (H-GRKKRRQRRRPPQCLAFYACFC-OH)
VZV transcripts
  EC50: 3300 nM
Adenovirus type 5; HEK293, adenovirus-GFP-Luc, 24 h, single value of Figure 3A (duplicate wells), read-out: EC50, inhibition of reporter gene expression
  EC50: 3140 nM
Adenovirus 5; A549, MOI 1.0, Gaussia luciferase after 24 h, Figure 3D, triplicate wells, read-out: EC50, inhibition of replication
  EC50: 3250 nM
NIH/3T3 cells
  cytotoxic effects (viable and dead cells): No cytotoxic effects
GAPDH mRNA, MRC-5 cells
  GAPDH mRNA levels: some reduction
Baculovirus-Luc; HEK293, peptide added together with baculovirus, 24 h, Figure 2A
  inhibition of reporter gene expression: > 95%
Baculovirus-Luc; HEK293, MOI 5, peptide added together with baculovirus, 24 h, Figure 2A, duplicate wells
  EC50: 170 nM
HEK293 cells [2]
  effects on HEK293 cell viability: no effects
HEK293 cells [3]
  concentrations at which some morphological changes were observed: > 10 μM
[4]; at the highest concentration (20 µM)
  inhibition of RSV RNA: 80%
[4]; lysates from infected cells, normalized to GAPDH mRNA, Figure S9
  EC50: 800 nM
[5]; read-out: EC50, inhibition of VACV wt replication, CV-1, MOI 0.2, 1 h preincubation, 24 h, TCID50, two independent experiments
  EC50: 790 nM
[1]; HSV1 601 (aciclovir-sensitive isolate)
  EC50: 370 nM
[1]; HSV1 703 (aciclovir-resistant isolate)
  EC50: 910 nM
[1]; HSV-1 F
  EC50: 1930 nM
CV-1 cells
  effect on mock infected CV-1 cells: No effect
CV-1 cells; at higher dosages (20 and 6.6 μM)
  effects on CV-1 cell attachment: some effects

## GRKKRRQRRRPPQ [TAT]
HCMV TB40
  effect on HCMV replication: no effect
Adenovirus type 5; HEK293, 24 h, Figure 3A, TAT (48–60)
  effect on reporter gene expression: ineffective
Murine CMV (MCMV)
  effect on luciferase expression: only partially decreased
Adenovirus 5; A549, Figure S3A
  effect on replication: no effect
NIH/3T3 cells
  cytotoxic effects (viable and dead cells): No cytotoxic effects
RSV (strain A2)
  CPE: no inhibition
MCMV S-mCherry-SCP
  cells producing virus particles: cells producing virus particles were seen
HSV-1 UL30 gene
  UL30 transcript levels normalized to 18S rRNA: No effect; also recorded: does not affect
HEK293 cells [2]
  effects on HEK293 cell viability: no effects
Influenza A PR8
  Plaque assay: no inhibition
[5]; CV-1
  effect on VACV wt replication: no effect
Adenovirus 19a/64
  effect on replication: no effect
Adenovirus 4
  effect on replication: no effect
TZM-bl reporter cells
  effect on reporter gene expression in the absence of virus: No inhibition
Varicella zoster virus
  CPE: no inhibition

## YGRKKRRQRRR [TAT (47–57)]
[6]
  effect on reporter gene expression: ineffective
Baculovirus-Luc; HEK293, 24 h, Figure 2A (TAT = TAT (47–57))
  effect on luciferase levels: did not affect

## YGRKKRRQRRRC [TAT-C]
Baculovirus-Luc; HEK293, at the highest tested concentration of 20 μM, Figure 2E
  inhibition of luciferase expression: only partial inhibition
